Experimental data as given in US20230312528A1, “2-OXO-IMIDAZOLIDINE-4-CARBOXAMIDES AS NAV1.8 INHIBITORS” (Merck Sharp & Dohme LLC, priority 2020, published 2023).

Biological target: human NaV1.8 (Homo sapiens (Human), UniProt Q9Y5Y9)
Assay: Nav1.8 Qube automated patch-clamp assay
Type: cell-based
Conditions: human NaV1.8 stably expressed in HEK 293 cells; automated 384-well patch-clamp; resting or inactivated state not specified
In short: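 IC50 values from Hill-equation fits of offline percent inhibition: the 1st pulse gave resting and the 10th pulse inactivated-state inhibition. Stimulus was a 10 s, 1 Hz train to 10 mV (holding −90 mV, −67 mV interpulse) applied at room temperature to HEK293 cells stably expressing human NaV1.8 (Qube).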

human NaV1.8, sequence (Q9Y5Y9 whole entry): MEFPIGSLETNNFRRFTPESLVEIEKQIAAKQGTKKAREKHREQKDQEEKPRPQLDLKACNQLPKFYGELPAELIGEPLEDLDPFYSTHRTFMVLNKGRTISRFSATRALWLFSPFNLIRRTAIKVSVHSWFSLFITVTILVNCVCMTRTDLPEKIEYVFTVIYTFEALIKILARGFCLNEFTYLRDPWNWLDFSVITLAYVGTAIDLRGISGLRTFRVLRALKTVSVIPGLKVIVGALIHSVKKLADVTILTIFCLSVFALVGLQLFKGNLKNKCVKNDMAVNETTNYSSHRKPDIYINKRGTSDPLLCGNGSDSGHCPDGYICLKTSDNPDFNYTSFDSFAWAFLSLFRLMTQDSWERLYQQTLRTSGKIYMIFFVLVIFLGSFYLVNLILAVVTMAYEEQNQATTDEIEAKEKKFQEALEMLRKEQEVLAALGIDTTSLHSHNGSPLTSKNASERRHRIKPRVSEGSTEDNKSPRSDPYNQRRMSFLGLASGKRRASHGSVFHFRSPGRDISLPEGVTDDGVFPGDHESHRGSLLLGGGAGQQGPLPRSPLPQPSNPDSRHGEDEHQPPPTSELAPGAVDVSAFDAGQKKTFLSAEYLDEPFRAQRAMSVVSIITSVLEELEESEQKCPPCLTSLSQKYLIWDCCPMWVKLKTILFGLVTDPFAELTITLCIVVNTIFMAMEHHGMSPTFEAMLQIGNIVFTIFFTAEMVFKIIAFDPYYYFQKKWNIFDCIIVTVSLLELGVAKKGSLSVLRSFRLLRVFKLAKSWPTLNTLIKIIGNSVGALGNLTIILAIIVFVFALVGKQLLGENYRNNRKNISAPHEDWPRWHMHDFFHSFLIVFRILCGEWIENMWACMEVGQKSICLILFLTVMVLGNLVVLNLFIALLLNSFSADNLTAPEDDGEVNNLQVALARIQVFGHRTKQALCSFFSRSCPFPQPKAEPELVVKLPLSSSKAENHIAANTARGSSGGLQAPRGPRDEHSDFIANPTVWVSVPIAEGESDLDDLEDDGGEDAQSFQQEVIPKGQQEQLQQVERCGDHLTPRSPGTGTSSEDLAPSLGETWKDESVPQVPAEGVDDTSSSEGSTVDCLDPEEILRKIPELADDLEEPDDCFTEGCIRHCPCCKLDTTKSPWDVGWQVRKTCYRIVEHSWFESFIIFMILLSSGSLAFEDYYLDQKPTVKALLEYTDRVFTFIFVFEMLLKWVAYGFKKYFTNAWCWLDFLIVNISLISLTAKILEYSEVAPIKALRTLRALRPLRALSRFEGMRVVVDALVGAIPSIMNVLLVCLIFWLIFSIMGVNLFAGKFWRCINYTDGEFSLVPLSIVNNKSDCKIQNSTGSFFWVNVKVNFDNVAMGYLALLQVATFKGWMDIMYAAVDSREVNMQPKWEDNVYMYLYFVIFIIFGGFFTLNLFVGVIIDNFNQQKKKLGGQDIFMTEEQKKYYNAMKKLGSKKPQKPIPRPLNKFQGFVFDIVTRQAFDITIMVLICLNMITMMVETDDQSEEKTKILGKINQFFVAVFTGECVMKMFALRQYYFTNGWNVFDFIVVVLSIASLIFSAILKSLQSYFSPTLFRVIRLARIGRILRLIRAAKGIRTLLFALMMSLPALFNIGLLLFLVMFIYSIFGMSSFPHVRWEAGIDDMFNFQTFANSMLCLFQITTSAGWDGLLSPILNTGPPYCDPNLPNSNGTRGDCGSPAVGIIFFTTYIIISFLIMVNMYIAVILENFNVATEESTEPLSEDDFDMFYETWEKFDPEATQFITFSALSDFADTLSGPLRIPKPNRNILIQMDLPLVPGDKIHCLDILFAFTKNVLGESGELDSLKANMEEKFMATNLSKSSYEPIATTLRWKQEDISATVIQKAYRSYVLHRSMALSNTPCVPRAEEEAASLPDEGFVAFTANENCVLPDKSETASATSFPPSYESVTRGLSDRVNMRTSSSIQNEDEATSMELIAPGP

Row | SMILES | IC50 [nM]
1 | Cn1nc(C(F)(F)F)cc1C(NC(=O)[C@@H]1CNC(=O)N1)c1ccc(F)c(Cl)c1 (single isomer, unassigned) [Example 31A, (S)-N-((R or S)-(3-chloro-4-fluorophenyl)(1-methyl-3-(tri-fluoromethyl)-1H-pyrazol-5-yl)methyl)-2-oxoimidazolidine-4-carboxamide] | 5.2
2 | O=C1NC[C@@H](C(=O)NC(c2cnc(C(F)(F)F)c(Cl)c2)c2ccc(Cl)c(C(F)(F)F)n2)N1 (single isomer, unassigned) [Example 56A, (S)-N-((R or S)-(5-chloro-6-(trifluoromethyl)pyridin-2-yl)(5-chloro-6-(trifluoromethyl)pyridin-3-yl)methyl)-2-oxoimidazolidine-4-carboxamide] | 2.5
3 | O=C1NC[C@@H](C(=O)NC(c2ccc(OC(F)(F)F)c(Cl)c2)c2coc(C(F)(F)F)n2)N1 (single isomer, unassigned) [Example 47B, (S)-N-((R or S)-(3-chloro-4-(trifluoro-methoxy)phenyl)(2-(trifluoromethyl)oxazo 1-4-yl)methyl)-2-oxoimidazolidine-4-carboxamide] | 3.9
4 | O=C1NC[C@@H](C(=O)NC(c2cnc(C3CC3)c(Cl)c2)c2ccc(F)c(Cl)c2F)N1 (single isomer, unassigned) [Example 13A, (4S)-N-[((R or S)-5-chloro-6-cyclo-propylpyridin-3-yl)(3-chloro-2,4-difluoro-phenyl)methyl]-2-oxoimidazolidine-4-carboxamide] | 1.1
5 | O=C1NC[C@@H](C(=O)NC(c2ccc(OC(F)(F)F)c(Cl)c2)c2coc(C(F)(F)F)n2)N1 (single isomer, unassigned) [Example 47A, (S)-N-((R or S)-(3-chloro-4-(trifluoro-methoxy)phenyl)(2-(trifluoromethyl)oxazo 1-4-yl)methyl)-2-oxoimidazolidine-4-carboxamide] | 5.2
6 | O=C1NC[C@@H](C(=O)NC(c2ccc(F)c(Cl)c2)c2cc3cc(Cl)ccc3o2)N1 (single isomer, unassigned) [Example 73A, (S)-N-((R or S)-(3-chloro-4-fluorophenyl)(5-chlorobenzofuran-2-yl)methyl)-2-oxoimidazolidine-4-carboxamide] | 0.2
7 | CN1CC(C(=O)NC(c2ccc(Cl)cc2)c2ccc(Cl)cc2)NC1=O (single isomer, unassigned) [Example 10A, (R or S)-N-[bis(4-chlorophenyl)methyl]-1-methyl-2-oxoimidazolidine-4-carboxamide] | 1070
8 | O=C1NC[C@@H](C(=O)NC(c2ccc(F)c(Cl)c2)C2Cc3c(Cl)cccc32)N1 (single isomer, unassigned) [Example 70D, (S)-N-((R or S)-(3-chloro-4-fluoro-phenyl)((R or S)-2-chlorobicyclo[4.2.0]-octa-1(6),2,4-trien-7-yl)methyl)-2-oxoimidazolidine-4-carboxamide] | 650
9 | C[C@@H]1C[C@H](C(NC(=O)[C@@H]2CNC(=O)N2)c2ccc(F)c(Cl)c2)C[C@H](C)N1CC(F)(F)F (single isomer, unassigned) [Example 15A, (S)-N-((R or S)-(3-chloro-4-fluoro-phenyl)(cis-2,6-dimethyl-1-(2,2,2-trifluoroethyl)piperidin-4-yl)methyl)-2-oxoimidazolidine-4-carboxamide] | 31
10 | O=C1NC[C@@H](C(=O)NC(c2ccc(F)c(Cl)c2)C2Cc3c(Cl)cccc32)N1 (single isomer, unassigned) [Example 70C, (S)-N-((R or S)-(3-chloro-4-fluoro-phenyl)((R or S)-2-chlorobicyclo[4.2.0]-octa-1(6),2,4-trien-7-yl)methyl)-2-oxoimidazolidine-4-carboxamide] | 117
11 | CC1(C)CC(C(NC(=O)[C@@H]2CNC(=O)N2)c2ccc(Cl)cc2)CCN1CC(F)(F)F (single isomer, unassigned) [Example 91B, (4S)—N—((R or S)(4-chlorophenyl)((R or S)2,2-dimethyl-1-(2,2,2-trifluoroethyl)piperidin-4-yl)methyl)-2-oxoimidazolidine-4-carboxamide] | 899
12 | CC(N1CC(C)(C(NC(=O)[C@@H]2CNC(=O)N2)c2ccc(F)c(Cl)c2F)C1)C(F)(F)F (single isomer, unassigned) [Example 65A, (S)—N—((R or S)-(3-chloro-2,4-difluorophenyl)(3-methyl-1-((R or S)-1,1,1-trifluoropropan-2-yl)azetidin-3-yl)methyl)-2-oxoimidazolidine-4-carboxamide] | 16200
13 | CC1(C)CC(C(NC(=O)[C@@H]2CNC(=O)N2)c2ccc(Cl)cc2)CCN1CC(F)(F)F (single isomer, unassigned) [Example 91C, (4S)—N—((R or S)(4-chlorophenyl)((R or S)2,2-dimethyl-1-(2,2,2-trifluoroethyl)piperidin-4-yl)methyl)-2-oxoimidazolidine-4-carboxamide] | 2960
14 | O=C(NC(c1ccc(Cl)cc1)c1ccc(Cl)cc1)C1CNC(=O)N1CCO (single isomer, unassigned) [Example 21A, (R or S)—N-(bis(4-chlorophenyl)methyl)-3-(2-hydroxyethyl)-2-oxoimidazolidine-4-carboxamide] | 209
15 | O=C1NC[C@@H](C(=O)NC(c2cnc(OC(F)F)s2)c2ccc(F)c(Cl)c2F)N1 (single isomer, unassigned) [Example 36B, (S)-N-((R or S)-(3-chloro-2,4-difluorophenyl)(2-(difluoromethoxy)thiazol-5-yl)methyl)-2-oxoimidazolidine-4-carboxamide] | 186
16 | O=C1NC[C@@H](C(=O)NC(c2ccc(F)c(Cl)c2F)C2COC(C(F)(F)F)C2)N1 (single isomer, unassigned) [Example 79F, (S)-N-((R or S)-(3-chloro-2,4-difluoro-phenyl)((cis or trans)-5-(trifluoromethyl)tetrahydrofuran-3-yl)methyl)-2-oxoimidazolidine-4-carboxamide] | 520
17 | CN1C(=O)NCC1C(=O)NC(c1ccc(Cl)cc1)c1ccc(Cl)cc1 (single isomer, unassigned) [Example 2B, (R or S)—N-(bis(4-chlorophenyl)methyl)-3-methyl-2-oxoimidazolidine-4-carboxamide] | 8100
18 | O=C1NC[C@@H](C(=O)NC(c2ccc(F)c(Cl)c2F)C2CCN(C3(C(F)(F)F)CC3)CC2)N1 (single isomer, unassigned) [Example 5B, (S)—N—((R or S)-(3-chloro-2,4-difluorophenyl)(1-(1-(trifluoromethyl)-cyclopropyl)piperidin-4-yl)methyl)-2-oxoimidazolidine-4-carboxamide] | 74
19 | O=C1NC[C@@H](C(=O)NC(c2ccc(F)c(Cl)c2F)C2CCCCN2CC(F)(F)F)N1 (single isomer, unassigned) [Example 58B, (S)-N-((R or S)-(3-chloro-2,4-difluorophenyl) ((R or S)-1-(2,2,2-trifluoroethyl)piperidin-2-yl)methyl)-2-oxoimidazolidine-4-carboxamide] | 35
20 | N#Cc1ccc(C(NC(=O)[C@@H]2CNC(=O)N2)c2ccc(F)c(Cl)c2)cc1 (single isomer, unassigned) [Example 18A, (S)-N-((R or S)-(3-chloro-4-fluoro-phenyl)(4-cyano-phenyl)methyl)-2-oxoimidazolidine-4-carboxamide] | 18
21 | O=C1NC[C@@H](C(=O)NC(c2cnc(C(F)(F)F)c(Cl)c2)c2ccc(Cl)c(C(F)F)n2)N1 (single isomer, unassigned) [Example 3B, (S)—N—((R or S)-(5-chloro-6-(difluoromethyl)pyridin-2-yl)(5-chloro-6-(trifluoromethyl)pyridin-3-yl)methyl)-2-oxoimidazolidine-4-carboxamide] | 2.7
22 | O=C1NC[C@@H](C(=O)NC(c2ccc(OC(F)(F)F)cc2)c2cccc(Cl)c2)N1 (single isomer, unassigned) [Example 9A, (4S)—N—((R or S)-(3-chlorophenyl)(4-(trifluoromethoxy)phenyl)methyl)-2-oxoimidazolidine-4-carboxamide] | 2
23 | Cc1nc2cc(C(NC(=O)[C@@H]3CNC(=O)N3)c3ccc(F)c(Cl)c3)ccc2s1 (single isomer, unassigned) [Example 66B, (S)—N—((R or S)-(3-chloro-4-fluorophenyl)(2-methylbenzo[d]thiazol-5-yl)methyl)-2-oxoimidazolidine-4-carboxamide] | 3.8
24 | O=C1NC[C@@H](C(=O)NC(c2ccc(Cl)cc2)c2ccc3cn[nH]c3c2)N1 (single isomer, unassigned) [Example 82B, (S)-N-((R or S)-(4-chlorophenyl)(1H-indazol-6-yl)methyl)-2-oxoimidazolidine-4-carboxamide] | 93
25 | O=C1NC[C@@H](C(=O)NC(CC2CCC(C(F)(F)F)CC2)c2ccc(F)c(Cl)c2F)N1 (single isomer, unassigned) [Example 23B, (S)—N—((R or S)-1-(3-chloro-2,4-difluorophenyl)-2-((cis or trans)-4-(trifluoro-methyl)cyclohexyl)ethyl)-2-oxoimidazolidine-4-carboxamide] | 4.9
26 | O=C1NC[C@@H](C(=O)NC(c2ccc(F)c(Cl)c2)[C@H]2CC[C@H](C(F)(F)F)CC2)N1 (single isomer, unassigned) [Example 32A, (4S)—N—((R or S)-(3-chloro-4-fluorophenyl)(trans-4-(trifluoromethyl)cyclohexyl)methyl)-2-oxoimidazolidine-4-carboxamide] | 3.4
27 | O=C1NC[C@@H](C(=O)NC(c2ccc(C(F)(F)F)nc2)c2csc(C(F)(F)F)n2)N1 (mixture of isomers) [Example 19, (S)-2-oxo-N—((R and S)-(6-(trifluoromethyl)pyridin-3-yl)(2-(trifluoromethyl)thiazol-4-yl)methyl)imidazolidine-4-carboxamide] | 116
